# Measurements reported in publication PMC12254355 (Nature Communications, 2025).
# Ends that are not written are not given here.
# How the values were obtained:
# E. coli AIC221 = conditions: AIC221, 24 h
# K. pneumoniae ATCC 13883 = conditions: ATCC 13883, 24 h
# P. aeruginosa PA14 = conditions: PA14, 24 h
# human red blood cells = conditions: pH 7.4
# P. aeruginosa PAO1 = conditions: PAO1, 24 h
# HEK293T cells = conditions: for CC50 vs HEK293T cells (source data of Figure 4a): 24 h
# [1] = tested on: E. faecium ATCC 700221 - VRE; conditions: ATCC 700221, 24 h
# E. coli ATCC 11775 = conditions: ATCC 11775, 24 h
# A. baumannii ATCC 19606 = conditions: ATCC 19606, 24 h
# S. aureus ATCC 12600 = conditions: ATCC 12600, 24 h
Sequence,"Minimal Inhibitory Concentration, E. coli AIC221 (-) (E. coli AIC221) [µmol/L]","Minimal Inhibitory Concentration, K. pneumoniae ATCC 13883 (-) (K. pneumoniae ATCC 13883) [µmol/L]","Minimal Inhibitory Concentration, P. aeruginosa PA14 (-) (P. aeruginosa PA14) [µmol/L]",HC50 (human red blood cells),"Minimal Inhibitory Concentration, P. aeruginosa PAO1 (-) (P. aeruginosa PAO1) [µmol/L]",CC50 vs HEK293T cells (HEK293T cells) [µmol/L],SIcytotoxicity (HEK293T cells),CC50 vs HEK293T cells (source data of Figure 4a) (HEK293T cells) [µmol/L],"Minimal Inhibitory Concentration, E. faecium ATCC 700221 - VRE (+) [1] [µmol/L]","Minimal Inhibitory Concentration, E. coli ATCC 11775 (-) (E. coli ATCC 11775) [µmol/L]","Minimal Inhibitory Concentration, A. baumannii ATCC 19606 (-) (A. baumannii ATCC 19606) [µmol/L]","Minimal Inhibitory Concentration, S. aureus ATCC 12600 (+) (S. aureus ATCC 12600) [µmol/L]"
KWLKAMKSIAKFIAKKQMKKHL [Arachnoserver-32],64,16,16,19.2,8,8,1.9,7.568,4,,,
RKFNWGKLFKSAKKLYKTGKKLSKNKNVRKALKFGK [Arachnoserver-7],1,64,4,7.0,8,7,6.8,6.812,8,8,8,
KFSVFSKILRSIAKVFKGVGKVRK [Arachnoserver-27],8,4,,24.2,,,2.0,7.976,8,32,,
KNKRFIRNLRSNLYQKIIKSTKSLL [UniprotKB-14],8,32,32,7.733e+045,32,,5.7,45.94,32,32,,
RRVKRFKKFFRKLKKSVKKRAKEFFK [ISOB-1],8,,8,2001.0,4,,28.9,,16,16,64,64
KRFIRNLRSNLYQKIIKSTKSLLDLREKI [Arachnoserver-17],8,4,,280.5,,,4.1,16.47,,64,,
LKLKSILGKLGVIL [UniprotKB-4],,64,,3.938e+054,,10,0.7,10.49,,,64,
RKFKWGSFKKILSAGKKLFKKAKKLSKNKNFKKALK [Arachnoserver-6],4,,4,12.1,4,5,1.3,5.173,8,32,64,
KIKWFKTMKSLAKFLAK [Arachnoserver-33],4,4,8,144.1,32,,8.0,,32,8,8,
KLKKLRKWIYRIV [UniprotKB-8],,64,,636.4,,,3.5,27.64,16,16,32,
VNSFKIGGFIKKLWRSKLAKKLRAK [UniprotKB-19],16,,16,625.9,8,,10.2,40.64,4,64,64,
KNKRFIRNLRSNLYQKIIKSTKSLL [Arachnoserver-9],8,16,16,4947.0,16,,2.9,23.56,16,16,32,
KWGKLFSAGKKLLKKAKKL [Arachnoserver-4],16,,16,1.085e+083,8,20,2.4,19.57,16,32,64,
KLLKIGLKSFARVLKKVL [UniprotKB-1],4,,8,34.9,8,10,2.5,10.13,,8,,16
KLHGLLTRRSLKNFWKRNLYLR [Conoserver-6],4,,32,66.3,16,,7.9,31.74,32,64,32,
KYRRGVSPWLKKELVRLHNNLRSKVAGGK [Arachnoserver-31],4,4,64,1392.0,,13,3.2,12.67,16,8,,
RFGSFLKKVWKSKLAKKL [UniprotKB-20],16,,16,18147.0,8,,6.6,52.53,8,32,64,
KIKWLKAMKSIAKFIAKK [Arachnoserver-5],2,2,2,46.7,4,,7.0,13.96,8,2,8,
ARKFKWGKLFSAGKKLLKKAKKLSKNK [Arachnoserver-11],4,,8,1118.0,8,9,2.2,8.722,8,32,64,
